Earlier results on 6 molecules are cited in US20090312295A1, “Second line treatment of metastatic hormone refractory prostate cancer using satraplatin” (priority 2006, published 2009).

SMILES strings stand for the structures.

The subject of data set [1] is hormone refractory carcinoma of the prostate.
In data set [2] the test system is hormone refractory prostate cancer. The note with it: 120 mg/m^2 per day for 5 days every 4 weeks, single agent.
Data set [3] concerns human ovarian carcinoma xenograft models. The following applies: oral versus intravenous cisplatin and carboplatin.
Data set [4] deals with H460 human non-small cell lung carcinoma (NSCLC). The note with it: H460 xenografted in nude mice.
For data set [5], the system named is prostate carcinoma models. The note with it: in vivo.
Data set [6] concerns mismatch repair-proficient and mismatch repair-deficient cell lines.
The test system of data set [7] is Schizosaccharomyces pombe. The note with it: panel of 23 yeast strains, mutants in genes affecting radiation response.
Data set [8] deals with human tumor cell lines with different sensitivities to cisplatin.
For a further data set, the system named is LNCaP cells. The note with it: 42 hours, 12 μM satraplatin or 0.7 μM JM-118.
Data set [9] has as its system prostate cancer cell lines PC-3, DU 145 and LNCaP.
The subject of data set [10] is ovarian cancer carcinoma cell lines. The following applies: panel of ovarian carcinoma cell lines.
Data set [11] relates to hormone refractory prostate cancer. The note with it: symptomatic patients; mitoxantrone combined with prednisone versus prednisone alone.
The conditions of data set [12]: sequential schedules.
Data set [13] concerns hormone refractory prostate cancer. The following applies: first-line HRPC.
For data set [14] the test system is unchanged. The following applies: estramustine combined with either paclitaxel or docetaxel.

Turning to `N.N.[Cl][Pt][Cl]` [cisplatin], in data set [1] (measurable disease, several trials), the “response rates to single agent” value was “generally low or poor”. Besides, the “efficacy in patients with metastatic prostatic carcinoma” value in [1] (phase II trial (Qazi & Khandekar)) is “not effective”.

Turning to `CC(=O)[O][Pt]([NH2])([Cl])([Cl])([NH]C1CCCCC1)[O]C(C)=O` [satraplatin, bis(acetato) ammine dichloro (cyclohexylamine) platinum (IV)], in data set [2], the “activity in HRPC” value was “moderate activity” and the toxicity entry is reported as “significant treatment-related toxicities”. The “efficacy of orally administered satraplatin” value in [3] is “comparable to that of cisplatin and carboplatin administered intravenously”. Besides, in data set [4], the “antitumor activity of combination with docetaxel” value is listed as “synergistic antitumor activity” and the “antitumor activity of combination with paclitaxel” value is “antitumor activity”. Moreover, in [5], the “antitumor activity of combination with docetaxel” value is “synergistic antitumor activity” and the “antitumor activity of combination with paclitaxel” value is on record as “synergistic antitumor activity”. In the data set on human lung cancer cells, the radiopotentiation entry was “can potentiate the effects of radiation”. In data set [6], the “sensitivity, mismatch repair-proficient versus -deficient cell lines” value is listed as “no difference in sensitivity”. For the same molecule, in data set [7], the “change in sensitivity of mutants” value was “none of the mutants demonstrated an appreciable change in sensitivity”. Further, the “circumvention of resistance to cisplatin” value in [8] was “can partially circumvent intrinsic and acquired resistance to cisplatin”. In addition, the “platinum-DNA adduct levels compared to cisplatin” value in data set [8] (equimolar basis) is given as “lower levels of platinum-DNA adducts”. For the same molecule, in the data set with LNCaP cells, the “PSA mRNA transcription” value was 90 % of control, the cell number is on record as 56 % of control and the “secreted PSA protein level” value is given as 58 % of control. For the same molecule, the “result of treatment of prostate cancer cells” value in data set [9] was “tumor cell kill”. Besides, the “sensitivity of cell lines to satraplatin” value in [9] (androgen-insensitive PC-3 and DU 145 versus androgen-sensitive LNCaP) is listed as “more sensitive”. In data set [10], the “cytotoxicity compared with cisplatin” value was “significantly more cytotoxic than cisplatin”.

With `O=C1c2c(O)ccc(O)c2C(=O)c2c(NCCNCCO)ccc(NCCNCCO)c21` [Mitoxantrone], the “palliative response using pain response criteria” value in [11] was 29%.

For `N.NC1CCCCC1.[Cl-].[Cl-].[Pt+2]` [JM118, reference compound], the “circumvention of resistance to cisplatin” value in [8] is “can partially circumvent intrinsic and acquired resistance to cisplatin”. For the same molecule, in the data set on LNCaP cells, the “PSA mRNA transcription” value is on record as 90 % of control, the cell number is reported as 61 % of control and the “secreted PSA protein level” value is 61 % of control. The “result of treatment of prostate cancer cells” value in data set [9] is on record as “tumor cell kill”. Also, the “in vitro anticancer activity in combination with erlotinib, paclitaxel or 5-FU” value in [12] was “synergistic in vitro anticancer activity”.

In the case of `C[C@]12C=CC(=O)C=C1CC[C@@H]1[C@@H]2C(=O)C[C@@]2(C)[C@H]1CC[C@]2(O)C(=O)CO` [prednisone alone, prednisone], in data set [13], the Progression-free survival is 2.5 months and the “patients with >50% decrease in prostate specific antigen (PSA)” value is listed as 8.7%. In addition, the Median overall survival in data set [13] (50 randomized patients) is reported as 11.9 months. In data set [11], the “palliative response using pain response criteria” value is 12%.

Turning to `C[C@]12CC[C@@H]3c4ccc(OC(=O)N(CCCl)CCCl)cc4CC[C@H]3[C@@H]1CC[C@@H]2O` [estramustine, Estramustine], in data set [14], the “patients with decrease of >50% in serum PSA levels” value is reported as > 50% and the tolerability entry is listed as “well tolerated”.
